According to US20050070480A1, “Peptide arginals and methods for treating disseminated intravascular coagulation” (priority 2001, published 2005):
Read-outs that look alike come from different tables or passages of the source.

Experiments:
plasmin (PL) = plasmin (PL) (Homo sapiens, UniProt P00747); test: Fibrin plate assay, plasmin; type: biochemical; conditions: reduction of lysed area to 50% of control, read-out: LA50 PL
Description: (§1) Inhibitory effects of the compounds of the invention on plasmin (PL) and plasmin generation by plasminogen (Plogen) activators, such as tissue plasminogen activator (tPA), and urokinase (UK) were examined by the fibrin plate assay. (See e.g., Bagdy, D., Barabás, E., Bajusz, S., and Széll, E., Thromb. Haemostas., 67:325-330 (1992); Barabás, E. Szell, E. and Bajusz, S, Blood Coagulation and Fibrinolysis, 4: 243 (1993)) The results are shown in Table 1, Column C. With a few exceptions the analogues are somewhat more inhibitory than Efegatran against the three fibrinolytic enzymes.

citrated human plasma [1] = test: Activated partial thromboplastin time (APTT) plasma clotting assay; type: biochemical
Experimental: (§2) The inhibitory effect on plasma coagulation was evaluated in the thrombin time (TT), activated partial thromboplastin time (APTT) and prothrombin time (PT) assays by using citrated human plasma as substrate [Bagdy, D. et. al.: Thromb. Haemostas. 67, 325 (1992)]. The TT assay measures the inhibition of a single step, the coagulation of fibrinogen on the action of exogenous thrombin (final concentration 2.5 NIH U/ml). Clotting of plasma in the APTT and PT assays was induced by recalcification. Endogenous thrombin generated could theoretically be present at a final concentration as high as 50 NIH U/ml (APTT, PT). These assays detect the sum of inhibitory actions on fibrin formation and thrombin generation, which includes several proteolytic reactions mediated by either thrombin or other enzymes, e.g. fXa. Anticlotting activity is expressed in CT2, which is the concentration (nM) required to double the clotting time.

LPS-treated rats = test: Survival in a rat model for disseminated intravascular coagulation; type: in vivo; conditions: for Survival rate %: rats, 30 mg/kg LPS i.v.
[2] = target: tissue plasminogen activator (tPA) (Homo sapiens, UniProt P00750); test: Fibrin plate assay, tissue plasminogen activator; type: biochemical; conditions: reduction of lysed area to 50% of control, read-out: LA50 tPA
Description: as §1

[3] = system: citrated human plasma (exogenous thrombin); test: Thrombin time (TT) plasma clotting assay; type: biochemical; conditions: thrombin 2.5 NIH U/ml
Experimental: as §2

urokinase (UK) = urokinase (UK) (Homo sapiens, UniProt P00749); test: Fibrin plate assay, urokinase; type: biochemical; conditions: for IC50: reduction of lysed area to 50% of control, urokinase, read-out: LA50 UK
Description: as §1

citrated human plasma [4] = test: Prothrombin time (PT) plasma clotting assay; type: biochemical
Experimental: as §2

[5] = system: endotoxin-treated rabbits; type: in vivo, rabbit
clot-bound thrombin = clot-bound thrombin (Homo sapiens, UniProt P00734); test: Enzyme inhibition in platelet-rich plasma clots, chromogenic substrate Tos-Gly-Pro-Arg-pNA; type: biochemical; conditions: for IC50: clot-bound thrombin, platelet-rich plasma clot
Experimental: (§3) Tos-Gly-Pro-Arg-pNA (S1) for thrombin and Moc-D-Chg-Gly-Arg-pNA (S2) for factor Xa, as published (Bajusz, S. et al.: PCT Pub. No. WO97/46576) briefly. The assays were carried out at room temperature in glass tubes and 96-well microtiter plates.
(§4) Solutions, (i) Buffer A: 0.1 M sodium phosphate/0.05 M NaCl (pH 8.5). (ii) Inhibitors: 0.1, 1.0 and 10 mg/ml solutions in buffer A containing 0.02% human albumin. (iii) Substrates: 1 mM of S1 and 2 mM of S2 in distilled water.
(§5) (b) Preparation of plasma clots. Platelet rich plasma samples (200 μl) placed in glass tubes were incubated at room temperature with 80 μl 40 mM CaCl2 for 60 min. The clots were washed with 2 ml aliquots of saline (0.9% NaCl) with gentle agitation to remove unbound enzymes In case of successful washing the optical density of the reaction mixture of wash and S1 is less than 5% of the control. The plasma clot thus obtained was kept under saline in the tube until use.
(§6) (c) Assessment of the enzyme inhibition in the clots. After removal of saline, the plasma clot was incubated at 37° C. with 400 μl inhibitor (or buffer A as negative control) for 5 min. and with 100 μl substrate S1 or S3 for 30 min., then the reaction was stopped with 100 μl 50% acetic acid. 150 μl portions of the reaction mixtures were placed in the wells of a microtiter plate and read at 405 nm (ELISA READER 800, Bio-Tek Instruments Inc. Winooski, Vt., USA). IC50 values were generated from the extinction data graphically.

clot-bound factor Xa = clot-bound factor Xa (Homo sapiens, UniProt P00742); test: Enzyme inhibition in platelet-rich plasma clots, chromogenic substrate Moc-D-Chg-Gly-Arg-pNA; type: biochemical
Experimental: as §3, §4, §5, §6

[6] = 0.75 mg/kg bolus + infusion, 0 hours
[7] = 0.75 mg/kg bolus + infusion, 4 hours
[8] = 0.75 mg/kg bolus + infusion, 5 hours
[9] = 0.75 mg/kg bolus + infusion, 6 hours
[10] = 0.75 mg/kg bolus + infusion, 7 hours
[11] = 0.75 mg/kg bolus + infusion, 8 hours
[12] = 1.5 mg/kg bolus + infusion, 0 hours
[13] = 1.5 mg/kg bolus + infusion, 4 hours
[14] = 1.5 mg/kg bolus + infusion, 5 hours
[15] = 1.5 mg/kg bolus + infusion, 6 hours
[16] = 1.5 mg/kg bolus + infusion, 7 hours
[17] = 1.5 mg/kg bolus + infusion, 8 hours
[18] = endotoxin-treated rabbits, 0.25 mg/kg/h infusion, 2 hrs
[19] = endotoxin-treated rabbits, 0.25 mg/kg/h infusion, 4 hrs
[20] = endotoxin-treated rabbits, 0.5 mg/kg/h infusion, 2 hrs
[21] = endotoxin-treated rabbits, 0.5 mg/kg/h infusion, 4 hrs

plasmin (PL), sequence (P00747 581-810 limits assumed, species assumed): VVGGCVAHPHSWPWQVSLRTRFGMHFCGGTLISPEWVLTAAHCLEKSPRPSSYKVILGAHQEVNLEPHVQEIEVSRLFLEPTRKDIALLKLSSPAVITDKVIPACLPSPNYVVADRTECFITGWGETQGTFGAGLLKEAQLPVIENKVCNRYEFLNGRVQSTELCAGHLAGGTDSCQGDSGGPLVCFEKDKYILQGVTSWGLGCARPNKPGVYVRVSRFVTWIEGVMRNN
plasmin (PL), sequence (P00747 97-580 limits assumed, species assumed): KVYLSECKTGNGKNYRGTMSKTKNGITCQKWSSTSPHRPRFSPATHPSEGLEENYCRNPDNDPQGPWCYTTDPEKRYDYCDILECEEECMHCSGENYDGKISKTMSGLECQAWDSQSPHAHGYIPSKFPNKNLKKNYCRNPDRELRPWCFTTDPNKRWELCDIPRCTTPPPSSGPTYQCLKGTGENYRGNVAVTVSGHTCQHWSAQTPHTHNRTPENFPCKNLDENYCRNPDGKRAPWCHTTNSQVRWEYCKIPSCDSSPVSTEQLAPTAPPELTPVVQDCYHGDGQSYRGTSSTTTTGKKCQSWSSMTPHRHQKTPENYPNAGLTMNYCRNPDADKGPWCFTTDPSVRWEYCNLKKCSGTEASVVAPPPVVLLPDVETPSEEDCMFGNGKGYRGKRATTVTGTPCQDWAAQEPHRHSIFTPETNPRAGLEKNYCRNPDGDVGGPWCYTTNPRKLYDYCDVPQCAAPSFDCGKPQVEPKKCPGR
tissue plasminogen activator (tPA), sequence (P00750 36-562, species assumed): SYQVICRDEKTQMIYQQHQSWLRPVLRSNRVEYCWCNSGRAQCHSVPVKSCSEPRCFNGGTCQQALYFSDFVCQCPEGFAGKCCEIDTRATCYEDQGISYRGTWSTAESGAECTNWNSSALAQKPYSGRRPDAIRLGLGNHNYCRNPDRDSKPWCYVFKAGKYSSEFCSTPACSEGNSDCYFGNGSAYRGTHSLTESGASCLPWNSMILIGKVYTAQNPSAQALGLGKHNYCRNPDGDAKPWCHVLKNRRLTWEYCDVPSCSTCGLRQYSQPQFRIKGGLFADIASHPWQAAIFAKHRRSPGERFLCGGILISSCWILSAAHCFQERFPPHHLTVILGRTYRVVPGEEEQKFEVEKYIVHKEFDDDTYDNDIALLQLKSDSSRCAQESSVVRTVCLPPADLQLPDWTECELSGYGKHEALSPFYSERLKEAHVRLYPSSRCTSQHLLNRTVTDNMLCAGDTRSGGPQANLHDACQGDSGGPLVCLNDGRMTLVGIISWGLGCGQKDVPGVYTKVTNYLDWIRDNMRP
clot-bound factor Xa, sequence (P00742 235-488 limits assumed): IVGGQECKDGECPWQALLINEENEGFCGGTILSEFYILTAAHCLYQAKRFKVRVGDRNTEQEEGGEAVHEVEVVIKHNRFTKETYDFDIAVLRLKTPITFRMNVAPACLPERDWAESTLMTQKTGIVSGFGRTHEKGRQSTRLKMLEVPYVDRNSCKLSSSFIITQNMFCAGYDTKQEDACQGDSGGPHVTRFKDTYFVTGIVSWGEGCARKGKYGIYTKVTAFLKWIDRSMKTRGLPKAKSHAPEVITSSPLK
clot-bound factor Xa, sequence (P00742 41-179 limits assumed): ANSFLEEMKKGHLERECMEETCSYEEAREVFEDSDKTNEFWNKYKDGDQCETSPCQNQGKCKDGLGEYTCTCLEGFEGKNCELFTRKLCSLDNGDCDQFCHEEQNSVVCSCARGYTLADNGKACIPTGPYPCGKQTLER

Compound	IC50 (plasmin (PL))	CT2 APTT (concentration required for doubling the clotting time) (citrated human plasma [1])	Survival rate % (LPS-treated rats; [6])	Survival rate % (LPS-treated rats; [7])	Survival rate % (LPS-treated rats; [8])	Survival rate % (LPS-treated rats; [9])	Survival rate % (LPS-treated rats; [10])	Survival rate % (LPS-treated rats; [11])	Survival rate % (LPS-treated rats; [12])	Survival rate % (LPS-treated rats; [13])	Survival rate % (LPS-treated rats; [14])	Survival rate % (LPS-treated rats; [15])	Survival rate % (LPS-treated rats; [16])	Survival rate % (LPS-treated rats; [17])	IC50 [2]	CT2 TT (concentration required for doubling the clotting time) [3]	IC50 (urokinase (UK))	CT2 PT (concentration required for doubling the clotting time) (citrated human plasma [4])	IC50 (clot-bound thrombin)	IC50 (clot-bound factor Xa)	further results
CN[C@H](Cc1ccccc1)C(=O)N1CCC[C@H]1C(=O)N[C@H](C=O)CCCN=C(N)N [C, D-MePhe-Pro-Arg-H, reference compound]	54 µM	622 nM	100%	93%	73%	67%	33%	27%	100%	100%	100%	100%	92%	92%	132 µM	87 nM	82 µM	2915 nM	0.375 µM	1 µM	Survival rate % (LPS-treated rats; 1.0 mg/kg bolus + infusion, 0 hours): 100%; Survival rate % (LPS-treated rats; 1.0 mg/kg bolus + infusion, 4 hours): 83%; Survival rate % (LPS-treated rats; 1.0 mg/kg bolus + infusion, 5 hours): 83%; Survival rate % (LPS-treated rats; 1.0 mg/kg bolus + infusion, 6 hours): 66%; Survival rate % (LPS-treated rats; 1.0 mg/kg bolus + infusion, 7 hours): 58%; Survival rate % (LPS-treated rats; 1.0 mg/kg bolus + infusion, 8 hours): 50%; Lethality %, 2 hrs [5, 18]: 7%; Lethality no. died/treated animals, 2 hrs [5, 18]: 1/14; Lethality %, 4 hrs [5, 19]: 36%; Lethality no. died/treated animals, 4 hrs [5, 19]: 5/14; Lethality %, 2 hrs [5, 20]: 7%; Lethality no. died/treated animals, 2 hrs [5, 20]: 1/15; Lethality %, 4 hrs [5, 21]: 40%; Lethality no. died/treated animals, 4 hrs [5, 21]: 6/15
N=C(N)NCCC[C@@H](C=O)NC(=O)[C@@H]1CCCN1C(=O)[C@H](O)CC1CCCCCC1 [Compound 3, D-cycloheptyllactyl-L-prolyl-L-arginine aldehyde]	21 µM	281 nM	100%	100%	100%	100%	100%	92%	100%	100%	100%	100%	100%	92%	10 µM	86 nM	85 µM	1082 nM	0.095 µM	0.117 µM	Effectiveness on survival compared with reference C (in words) (LPS-treated rats; LPS-treated rats): more effective than reference C; Survival rate % (LPS-treated rats; 0.5 mg/kg bolus + infusion, 0 hours): 100%; Survival rate % (LPS-treated rats; 0.5 mg/kg bolus + infusion, 4 hours): 100%; Survival rate % (LPS-treated rats; 0.5 mg/kg bolus + infusion, 5 hours): 100%; Survival rate % (LPS-treated rats; 0.5 mg/kg bolus + infusion, 6 hours): 100%; Survival rate % (LPS-treated rats; 0.5 mg/kg bolus + infusion, 7 hours): 100%; Survival rate % (LPS-treated rats; 0.5 mg/kg bolus + infusion, 8 hours): 80%; Activity against UK compared with Efegatran (in words) (urokinase (UK)): almost equiactive with Efegatran; Effect on lethality of endotoxin-treated rabbits (in words) ([5]; rabbit, in vivo): significantly reduce the lethality; Lethality %, 2 hrs ([5]; rabbit, in vivo, 0.25 mg/kg): 0%; Lethality %, 4 hrs ([5]; rabbit, in vivo, 0.25 mg/kg): 18%; Lethality no. died/treated animals, 2 hrs ([5]; rabbit, in vivo, 0.25 mg/kg): 0/22; Lethality no. died/treated animals, 4 hrs ([5]; rabbit, in vivo, 0.25 mg/kg): 4/22; Inhibition of clot-bound thrombin compared with Efegatran (in words) (clot-bound thrombin): surpass Efegatran
